What was measured:
[1] = tested on: MIA(Monosodium iodoacetate)-induced osteoarthritis rat model; assay: Pain threshold (dynamic plantar aesthesiometer) in MIA-induced osteoarthritis rat model; format: in vivo
Description: (§1) In order to evaluate the efficacy of test sample on MIA(Monosodium iodoacetate)-induced osteoarthritis rat model, following test was performed at “Joint and Immune disease T2B center(chief MD. PARK, Sung-whan) located in “The Catholic University of Korea, Seoul ST. Mary's Hospital, Seoul).
(§2) (1) Test animals: Rats (Male Wista rats, Central Lab. Animal, Seoul, Korea, 7 to 8 weeks aged, 200 to 250 g) were bred in the well-controlled breeding room in polysulfone cage (2-3 […] per cage) maintaining the temperature of 21±2° C. and relative humidity of 50±20% with the light cycle of day/dark (08:00˜20:00) at the interval of 12 hours and acclimated to the surround environment
(§3) Test method: 3 mg/kg of Monosodium iodoacetate (MIA, 12512, Sigma, Poole, UK) was dissolved in the injection saline to re reach to 60 mg/ml concentration on the day of the experiment (day 0). After dividing each groups, the experimental animals were placed in the anesthesia chamber and anesthetized with diethyl ether. 50 μL of MIA (3 mg/body) was injected into the right knee joint through the infrapatellar ligament using a 1cc syringe (26.5 gauge) in order to inducing osteoarthritis
(§4) (4) Treatment route: oral administration 3 days after inducing osteoarthritis (once a day)
(§5) After inducing osteoarthritis with MIA, test sample treatment groups (G2, G3) were prepared by homogenizing the test samples with vehicle (saline) according to the prescribed dose and orally administrating 1 mL of test sample once a day.
The positive control group (G4) was homogenized to the vehicle according to the prescribed dose and orally administered once a day.
24 rats were divided into 4 groups per 6 rats, and the test samples and positive control substance were orally administered at a specified time.
The pain threshold (nociceptive latency, threshold) was determined by using dynamic plantar aesthesiometer (Ugo Basile, 37400, Comerio, Italy), a device that gradually increases the force on the feet of Male Wistarats over a certain period of time, according to a […] evaluation method to measure pain thresholds ((Kwon J Y et al., Sci Rep. 2018 Sep. 14; 8(1):13832)
Prior to measurement, the animal was placed in an acrylic box with a wire mesh bench and acclimated for five minutes.
The pain threshold was determined by measuring the weight showing paw withdrawal behavior which animal withdraws its feet by applying a slow force of 0 to 50 g over 10 seconds using metal filaments in the center of each animal's right hind foot.
To avoid tissue damage, the cut-off threshold was set to 50 g, and the measurement time was set to the day before the inducing day of osteoarthritis by the treatment of MIA to calculate base line value in the normal control group (G1), test sample groups (G2, G3) and positive control group (G4) and the same value was obtained in the base line (day 3).
The same value was measured before the treatment of test samples (day 3) and the value was measured once a week at a certain time by administering the test samples in the […] of rats.
The test result of pain threshold was calculated according to (a) paw withdrawal latencies (sec) and (b) paw withdrawal threshold (g).

[2] = tested on: MIA(Monosodium iodoacetate)-induced osteoarthritis rat model; assay: Weight bearing in MIA-induced osteoarthritis rat model; format: in vivo
Description: as §1, §2, §3, §4, §5
In order to measure the change in weight (or weight distribution) between normal hind legs (left) and arthritis-induced hind legs (right), the load of both hind feet was determined using testing apparatus (Model 600, IITC, USA) according to the method described in the literature (Kwon J Y et al., Sci Rep. 2018 Sep. 14; 8(1):13832).
The test animal shall be correctly located in the holder and fixed so that both feet can be stepped symmetrically, since the load can be varied depending on the position of the animal's foot. The particular person performs the fixation to reduce the possible error to the maximum extent.
When each animal was correctly located in the holder, the machine was operated and the weight bearing of each group was measured twice for 5 seconds per measurement.
The mean value for each test result was digitized into the weight bearing(g) of each foot.
After obtaining a baseline value before MIA treatment (Day 0), the weight bearing in the normal control group (G1), test sample groups (G2, G3) and positive control group (G4), was determined at a certain time twice a week, 3 days before the treatment of test sample (day 3).
The test results of the weight load measurement were transformed into each weight bearing ratio according to below Math 1.
Weight ratio (%)={weight of right hind limb/(weight of right hind limb+weight of left hind limb)}×100 [Math.1]

[3] = tested on: MIA(Monosodium iodoacetate)-induced osteoarthritis rat model; assay: Bone injury by micro-CT in MIA-induced osteoarthritis rat model; format: in vivo; conditions: 30 mg/kg oral once a day; vehicle 45.7
Description: as §1, §2
(§6) Test method: 3 mg/kg of Monosodium iodoacetate (MIA, 12512, Sigma, Poole, UK) was dissolved in the injection saline to re reach to 60 mg/ml concentration on the day of the experiment (day 0). […]
The degree of bone injury around femur area of the knee joint in each group consisting of 3 rats, was determined using X-ray source (70 kV, 142 uA, AI 0.5 mm filter, rotation step 0.6°) and animal scanner (SKYSCAN1272 ex-vivo micro-CT, Bruker micro CT, Belgium) to perform micro-CT photography at 15 μm of Pixel resolution including section formation (NRecon), section rotation (Data Viewer), data Analysis (CTAN), Volume rendering generation (CTVox), and surface rendering (CTAN+CTVol).

[4] = tested on: MIA(Monosodium iodoacetate)-induced osteoarthritis rat model; assay: Bone injury by histopathological analysis (Safranin O; Total Mankin score, OARSI score) in MIA-induced osteoarthritis rat model; format: in vivo; conditions: 30 mg/kg oral once a day
Description: as §1, §2
as §6, with “0). After dividing each groups, the experimental animals were placed in the anesthesia chamber and anesthetized with diethyl ether.” for “0).”
The histopathological analysis was performed by photographing the femur area of knee joint (×200 fold). The test result was calculated and evaluated according to the known methods including Total Mankin score (Bulstra S K et al., 1989, Clin Orthop Relat Res: 294-302.) and OARSI score (Pritzker K. P. H. et al., 2006, Osteoarthritis Cartilage 14:13-29).

[5] = tested on: TSLP; assay: Inhibition of cytokine expression in TNF alpha-induced HaCaT cell (Real-time PCR): TSLP; format: cell-based, human; conditions: TNFα 50 ng/ml, Dexamethasone 200 nM, TNFα+DIW control 132.4692
Description: (§7) In order to determine the anti-inflammatory activity of inventive extract, following inhibition test of cytokine expression using HaCaT cell was performed according to the procedure disclosed in the literature (Jeong et al., 2019, J. Invest. Dermatol., May; 139 (5): pp 1098-1109).
(§8) HaCaT cell (human epithelial keratinocyte cell, 300493, CLS) was inoculated into DMEM medium containing 10% Fetal bovine serum, 100 units/ml of penicillin, 100 μg/ml of streptomycin (D6429, Sigma-Aldrich Co. Ltd) and was incubated in the incubator (HERA cell 150i, Thermo Fisher Scientific Co. Ltd.) maintaining optimum humidity (85-95%) and 5% CO2 atmosphere.
(§9) For performing gene expression test, the incubated cells were transferred to 12 wells and 50 ng/ml of TNF alpha (RC214-12, Biobasic Co. Ltd) was treated therewith for 1 hour to induce inflammatory response.
(§10) 1 hour after inducing the inflammation, 1 μg/ml of inventive extract prepared in Examples was treated with identical medium and subjected to incubation for 1 hour. After the incubation, RNA (FATRR-001, Favorgen) was extracted from the cell and cDNA was synthesized from the RNA using by cDNA synthesis kit (RRO36A, TAKARA). […]

[6] = tested on: IL-1β; assay: Inhibition of cytokine expression in TNF alpha-induced HaCaT cell (Real-time PCR): IL-1β; format: cell-based, human; conditions: TNFα 50 ng/ml, Dexamethasone 200 nM, TNFα+DIW control 4.152715
Description: as §7, §8, §9, §10

Structure (SMILES): Cc1ccc(-c2cc(C(F)(F)F)nn2-c2ccc(S(N)(=O)=O)cc2)cc1 [Celecoxib]
- paw withdrawal latencies ([1]; 30 mg/kg oral once a day, 6 days after MIA treatment, vehicle 8.6): 9.9 ± 2.2 s
- paw withdrawal threshold ([1]; 30 mg/kg oral once a day, 6 days after MIA treatment, vehicle 17.4): 19.9 ± 4.3 g
- paw withdrawal latencies ([1]; 30 mg/kg oral once a day, 11 days after MIA treatment, vehicle 9.1): 10.2 ± 0.9 s
- paw withdrawal threshold ([1]; 30 mg/kg oral once a day, 11 days after MIA treatment, vehicle 18.5): 20.7 ± 1.7 g
- paw withdrawal latencies ([1]; 30 mg/kg oral once a day, 13 days after MIA treatment, vehicle 9.0): 10.4 ± 0.9 s
- paw withdrawal threshold ([1]; 30 mg/kg oral once a day, 13 days after MIA treatment, vehicle 18.3): 21.0 ± 1.6 g
- paw withdrawal latencies ([1]; 30 mg/kg oral once a day, 17 days after MIA treatment, vehicle 9.5): 10.9 ± 1.8 s
- paw withdrawal threshold ([1]; 30 mg/kg oral once a day, 17 days after MIA treatment, vehicle 19.2): 22.0 ± 3.4 g
- paw withdrawal latencies ([1]; 30 mg/kg oral once a day, 21 days after MIA treatment, vehicle 9.0): 11.9 ± 1.5 s
- paw withdrawal threshold ([1]; 30 mg/kg oral once a day, 21 days after MIA treatment, vehicle 18.3): 24.0 ± 2.9 g
- paw withdrawal latencies ([1]; 30 mg/kg oral once a day, 25 days after MIA treatment, vehicle 9.0): 11.6 ± 1.0 s
- paw withdrawal threshold ([1]; 30 mg/kg oral once a day, 25 days after MIA treatment, vehicle 18.2): 23.4 ± 1.9 g
- paw withdrawal latencies ([1]; 30 mg/kg oral once a day, Before MIA treatment (baseline), vehicle 16.8): 16.0 ± 1.5 s
- paw withdrawal threshold ([1]; 30 mg/kg oral once a day, Before MIA treatment (baseline), vehicle 33.6): 33.8 ± 2.9 g
- paw withdrawal latencies ([1]; 30 mg/kg oral, 3 days after MIA treatment (before first dose), vehicle 9.4): 9.2 ± 2.1 s
- paw withdrawal threshold ([1]; 30 mg/kg oral, 3 days after MIA treatment (before first dose), vehicle 19.0): 18.6 ± 4.1 g
- weight bearing, weight ratio of right hind limb ([2]; 30 mg/kg oral once a day, 6 days after MIA inducement, vehicle 35.5): 38.5 ± 1.8%
- weight bearing, weight ratio of right hind limb ([2]; 30 mg/kg oral once a day, 11 days after MIA inducement, vehicle 33.8): 40.0 ± 3.2%
- weight bearing, weight ratio of right hind limb ([2]; 30 mg/kg oral once a day, 13 days after MIA inducement, vehicle 32.3): 44.5 ± 0.7%
- weight bearing, weight ratio of right hind limb ([2]; 30 mg/kg oral once a day, 17 days after MIA inducement, vehicle 32.2): 43.9 ± 1.3%
- weight bearing, weight ratio of right hind limb ([2]; 30 mg/kg oral once a day, 21 days after MIA inducement, vehicle 31.6): 39.7 ± 3.7%
- weight bearing, weight ratio of right hind limb ([2]; 30 mg/kg oral once a day, 25 days after MIA inducement, vehicle 33.3): 41.7 ± 1.9%
- weight bearing, weight ratio of right hind limb ([2]; 30 mg/kg oral once a day, Before MIA inducement (baseline), vehicle 50.6): 49.3 ± 0.9%
- weight bearing, weight ratio of right hind limb ([2]; 30 mg/kg oral, 3 days after MIA inducement (before first dose), vehicle 36.9): 34.7 ± 4.0%
- Bone surface (Micro-CT, femur area of knee joint) [3]: 57.5 ± 0.5%
- OARSI score ([4]; vehicle 4): 2.4 ± 0.4
- Total Mankin score ([4]; vehicle 7.5): 4 ± 0.6

Structure (SMILES): C[C@@H]1C[C@H]2[C@@H]3CCC4=CC(=O)C=C[C@]4(C)[C@@]3(F)[C@@H](O)C[C@]2(C)[C@@]1(O)C(=O)CO [Dex, Dexamethasone]
- TSLP expression (RT-PCR, relative to untreated = 1) [5]: 52.49
- IL-1β expression (RT-PCR, relative to untreated = 1) [6]: 1.081
